The values below come from ChEMBL document CHEMBL3046963, “Fungicidal Activity of 2-Aminochromone-3-carboxamides” (1990).

By MIC is commonly meant the lowest concentration that inhibits growth of the organism.

Common to all, as to type: functional
The subject of test [1] is Rhizoctonia solani. Kind of test: In vivo fungicidal activity against Rhizoctonia solani in rice seedlings assessed as control of sheath blight disease at 500 ppm by curative foliar treatment.
The subject of another test is Bipolaris oryzae. In words: Fungicidal activity against Bipolaris oryzae by agar dilution method. Background: In agar dilution the substance is mixed into plates at graded concentrations.
Test [2] deals with Rhizoctonia solani. In words: Fungicidal activity against Rhizoctonia solani by agar dilution method.
Test [3] concerns Pyricularia oryzae. Kind of test: Fungicidal activity against Magnaporthe oryzae by agar dilution method.
The test system of another test is Nakataea oryzae. In words: Fungicidal activity against Magnaporthe salvinii by agar dilution method.
Test [4] deals with Rhizoctonia solani. Kind of test: In vivo fungicidal activity against Rhizoctonia solani in rice seedlings assessed as control of sheath blight disease at 250 ppm by curative foliar treatment.
For test [5], the system named is Pyricularia oryzae. In words: Fungicidal activity against Magnaporthe oryzae in rice seedlings assessed as control of rice blast at 500 ppm by curative foliar treatment.
Test [6] relates to Pyricularia oryzae. In words: Fungicidal activity against Magnaporthe oryzae in rice seedlings assessed as control of rice blast at 500 ppm by preventive foliar treatment.
Test [7] concerns Fusarium fujikuroi. Kind of test: Fungicidal activity against Fusarium fujikuroi by agar dilution method.
The subject of test [8] is Fusarium fujikuroi. In words: Fungicidal activity against Fusarium fujikuroi assessed as infected rice seedlings in seed disinfection against bakanae disease at 1000 ppm by soaking method.

The structures appear in SMILES notation. Values after ≈ are worked out from the molar mass of the structure shown.

For `CCOC(=O)Nc1oc2ccc(C(C)(C)C)cc2c(=O)c1C(N)=O`, the Activity in the test on Rhizoctonia solani [1] is given as 100%. The MIC against Bipolaris oryzae is > 100 mg/L; in the test on Rhizoctonia solani [2] it was 50 mg/L (≈ 150 µM); against Pyricularia oryzae [3], 25 mg/L (≈ 75.2 µM); in the test with Nakataea oryzae it was 25 mg/L (≈ 75.2 µM).

As for `NC(=O)c1c(N)oc2ccc(F)cc2c1=O`, the Activity with Rhizoctonia solani [1] stood at 100%. The MIC with Bipolaris oryzae was > 100 mg/L; against Rhizoctonia solani [2], 12.5 mg/L (≈ 56.3 µM); against Pyricularia oryzae [3], 25 mg/L (≈ 113 µM); against Nakataea oryzae it was 25 mg/L (≈ 113 µM).

As for `NC(=O)c1c(N)oc2ccccc2c1=O`, the Activity with Rhizoctonia solani [4] is 100%. Further, the MIC was > 100 mg/L with Bipolaris oryzae, 12.5 mg/L (≈ 61.2 µM) against Rhizoctonia solani [2], 25 mg/L (≈ 122 µM) against Pyricularia oryzae [3] and 12.5 mg/L (≈ 61.2 µM) against Nakataea oryzae.

As to `NC(=O)c1c(N)oc2c(Cl)cc(Cl)cc2c1=O`, in the test with Rhizoctonia solani [1], the Activity worked out at 100%. Moreover, the MIC in the test on Bipolaris oryzae was > 100 mg/L; in the test on Rhizoctonia solani [2], 100 mg/L (≈ 366 µM); with Pyricularia oryzae [3] it was > 100 mg/L; in the test on Nakataea oryzae, > 100 mg/L.

`CNC(=O)Nc1oc2ccc(C(C)(C)C)cc2c(=O)c1C(N)=O`: the Activity with Rhizoctonia solani [1] was 100%. Further, the MIC is 100 mg/L (≈ 315 µM) with Bipolaris oryzae, > 100 mg/L in the test with Rhizoctonia solani [2], 0.78 mg/L (≈ 2.46 µM) in the test on Pyricularia oryzae [3] and 0.78 mg/L (≈ 2.46 µM) with Nakataea oryzae.

As for `CCC(C)(CC)c1ccc2oc(N)c(C(N)=O)c(=O)c2c1`, in the test on Rhizoctonia solani [1], the Activity was found to be 100%. Moreover, the MIC against Bipolaris oryzae was > 100 mg/L; against Rhizoctonia solani [2] it was > 100 mg/L; against Pyricularia oryzae [3], 1.56 mg/L (≈ 5.41 µM); in the test with Nakataea oryzae it was 3.12 mg/L (≈ 10.8 µM).

On to `C/C(=N/Nc1nc(C)cc(C)n1)c1ccccc1C` [FERIMZONE], for which the Activity in the test with Pyricularia oryzae [5] turned out to be 100%; in the test on Pyricularia oryzae [6], 99%; in the test with Rhizoctonia solani [1], 100%. The MIC was > 100 mg/L with Fusarium fujikuroi [7]; 25 mg/L (≈ 98.3 µM) with Bipolaris oryzae; 50 mg/L (≈ 197 µM) in the test with Rhizoctonia solani [2]; 3.12 mg/L (≈ 12.3 µM) with Pyricularia oryzae [3]; 1.56 mg/L (≈ 6.13 µM) with Nakataea oryzae.

With `CCC(C)c1ccc2oc(N)c(C(N)=O)c(=O)c2c1` (centres undefined), the Activity with Pyricularia oryzae [5] is 96%; in the test with Pyricularia oryzae [6], 19%; in the test on Fusarium fujikuroi [8], 6.5%; in the test on Rhizoctonia solani [1] it was 79%. Moreover, the MIC was > 100 mg/L in the test on Fusarium fujikuroi [7]; 25 mg/L (≈ 96 µM) in the test on Bipolaris oryzae; 6.25 mg/L (≈ 24 µM) against Rhizoctonia solani [2]; 0.78 mg/L (≈ 3 µM) in the test with Pyricularia oryzae [3]; 0.78 mg/L (≈ 3 µM) in the test with Nakataea oryzae.

Take `Cc1ccc2oc(N)c(C(N)=O)c(=O)c2c1`: the Activity with Rhizoctonia solani [4] is given as 100%. Moreover, the MIC came to 25 mg/L (≈ 115 µM) in the test with Bipolaris oryzae, 6.25 mg/L (≈ 28.6 µM) in the test on Rhizoctonia solani [2], 6.25 mg/L (≈ 28.6 µM) in the test with Pyricularia oryzae [3] and 6.25 mg/L (≈ 28.6 µM) against Nakataea oryzae.

As for `CC(C)(C)c1ccc2oc3nc[nH]c(=O)c3c(=O)c2c1`, the Activity in the test with Rhizoctonia solani [1] is 0%. Besides, the MIC against Bipolaris oryzae, against Rhizoctonia solani [2], with Pyricularia oryzae [3] and with Nakataea oryzae was > 100 mg/L in each case.

Turning to `CC(C)(C)c1ccc2oc(N)c(C(N)=O)c(=O)c2c1`, the Activity in the test on Pyricularia oryzae [5] is given as 96%; in the test with Pyricularia oryzae [6], 81%; in the test on Fusarium fujikuroi [8] it was 3%; with Rhizoctonia solani [1], 100%. For the same compound, the MIC against Fusarium fujikuroi [7] was 12.5 mg/L (≈ 48 µM); in the test with Bipolaris oryzae, 6.25 mg/L (≈ 24 µM); with Rhizoctonia solani [2], 0.78 mg/L (≈ 3 µM); with Pyricularia oryzae [3], 0.78 mg/L (≈ 3 µM); with Nakataea oryzae, 0.78 mg/L (≈ 3 µM).

For `NC(=O)c1c(N)oc2ccc(Br)cc2c1=O`, the Activity in the test with Rhizoctonia solani [1] amounted to 100%. The MIC in the test on Bipolaris oryzae is > 100 mg/L; against Rhizoctonia solani [2] it was 3.12 mg/L (≈ 11 µM); in the test on Pyricularia oryzae [3], 1.56 mg/L (≈ 5.51 µM); in the test on Nakataea oryzae it was 1.56 mg/L (≈ 5.51 µM).

As to `CNc1oc2ccc(C(C)(C)C)cc2c(=O)c1C(N)=O`, in the test with Rhizoctonia solani [1], the Activity was determined as 100%. Moreover, the MIC against Bipolaris oryzae worked out at 25 mg/L (≈ 91.1 µM); in the test with Rhizoctonia solani [2] it was 25 mg/L (≈ 91.1 µM); against Pyricularia oryzae [3] it was 1.56 mg/L (≈ 5.69 µM); against Nakataea oryzae, 1.56 mg/L (≈ 5.69 µM).

Take `CC(C)C(C)(C)c1ccc2oc(N)c(C(N)=O)c(=O)c2c1`: in the test with Rhizoctonia solani [1], the Activity is given as 100%. Besides, the MIC was > 100 mg/L in the test on Bipolaris oryzae, > 100 mg/L against Rhizoctonia solani [2], 3.12 mg/L (≈ 10.8 µM) in the test with Pyricularia oryzae [3] and 6.25 mg/L (≈ 21.7 µM) with Nakataea oryzae.

Take `CC(=O)Nc1oc2ccccc2c(=O)c1C(N)=O`: the Activity in the test with Rhizoctonia solani [1] was 90%. For the same compound, the MIC with Bipolaris oryzae was > 100 mg/L; against Rhizoctonia solani [2], 25 mg/L (≈ 102 µM); in the test with Pyricularia oryzae [3] it was 50 mg/L (≈ 203 µM); against Nakataea oryzae, 100 mg/L (≈ 406 µM).

For `NC(=O)c1c(N)oc2ccc(Cl)cc2c1=O`, the Activity in the test with Rhizoctonia solani [4] is listed as 96%. Also, the MIC was > 100 mg/L with Bipolaris oryzae, 6.25 mg/L (≈ 26.2 µM) in the test with Rhizoctonia solani [2], 3.12 mg/L (≈ 13.1 µM) against Pyricularia oryzae [3] and 12.5 mg/L (≈ 52.4 µM) against Nakataea oryzae.

Regarding `O=c1[nH]cnc2oc3ccccc3c(=O)c12`, the Activity in the test on Rhizoctonia solani [1] was 0%. Further, the MIC with Bipolaris oryzae, against Rhizoctonia solani [2], with Pyricularia oryzae [3] and in the test on Nakataea oryzae was > 100 mg/L in each case.

On to `CCc1ccc2oc(N)c(C(N)=O)c(=O)c2c1`, for which the Activity in the test on Rhizoctonia solani [4] is reported as 90%. In addition, the MIC against Bipolaris oryzae amounted to 25 mg/L (≈ 108 µM); in the test on Rhizoctonia solani [2] it was 3.25 mg/L (≈ 14 µM); in the test with Pyricularia oryzae [3], 0.78 mg/L (≈ 3.36 µM).

Regarding `CCCC(C)(C)c1ccc2oc(N)c(C(N)=O)c(=O)c2c1`, the Activity with Rhizoctonia solani [1] is reported as 100%. Moreover, the MIC against Bipolaris oryzae is > 100 mg/L; against Rhizoctonia solani [2], > 100 mg/L; in the test on Pyricularia oryzae [3], 1.56 mg/L (≈ 5.41 µM); against Nakataea oryzae, 6.25 mg/L (≈ 21.7 µM).

As for `N#Cc1c(N)oc2ccccc2c1=O`, the Activity with Rhizoctonia solani [1] is listed as 0%. The minimum inhibitory concentration (MIC) against Bipolaris oryzae, in the test with Rhizoctonia solani [2], against Pyricularia oryzae [3] and in the test on Nakataea oryzae was > 100 mg/L each time.

As to `CCC(C)(C)c1ccc2oc(N)c(C(N)=O)c(=O)c2c1`, in the test with Rhizoctonia solani [1], the Activity is listed as 100%. The MIC in the test with Bipolaris oryzae was 50 mg/L (≈ 182 µM); in the test with Rhizoctonia solani [2], > 100 mg/L; against Pyricularia oryzae [3], 3.12 mg/L (≈ 11.4 µM); with Nakataea oryzae, 6.25 mg/L (≈ 22.8 µM).

Consider `CCCCc1ccc2oc(N)c(C(N)=O)c(=O)c2c1`, for which, in the test on Rhizoctonia solani [1], the Activity turned out to be 90%. Further, the MIC is > 100 mg/L against Bipolaris oryzae, > 100 mg/L with Rhizoctonia solani [2], 50 mg/L (≈ 192 µM) against Pyricularia oryzae [3] and 50 mg/L (≈ 192 µM) against Nakataea oryzae.

In the case of `CC(=O)Nc1oc2ccc(C(C)(C)C)cc2c(=O)c1C(N)=O`, in the test on Rhizoctonia solani [1], the Activity amounted to 100%. In addition, the MIC in the test on Bipolaris oryzae turned out to be 100 mg/L (≈ 331 µM); against Rhizoctonia solani [2], 6.25 mg/L (≈ 20.7 µM); against Pyricularia oryzae [3], 3.12 mg/L (≈ 10.3 µM); in the test with Nakataea oryzae, 6.25 mg/L (≈ 20.7 µM).

As to `NC(=O)c1c(N)oc2c(Br)cc(Br)cc2c1=O`, the Activity with Rhizoctonia solani [1] turned out to be 76%. For the same compound, the MIC in the test with Bipolaris oryzae, against Rhizoctonia solani [2], in the test with Pyricularia oryzae [3] and in the test on Nakataea oryzae was > 100 mg/L throughout.

For `CC(C)c1ccc2oc(N)c(C(N)=O)c(=O)c2c1`, the Activity with Pyricularia oryzae [5] was determined as 94%; with Pyricularia oryzae [6], 74%; with Fusarium fujikuroi [8] it was 6%; in the test with Rhizoctonia solani [1], 85%. For the same compound, the MIC against Fusarium fujikuroi [7] was > 100 mg/L; against Bipolaris oryzae, 100 mg/L (≈ 406 µM); against Rhizoctonia solani [2], 100 mg/L (≈ 406 µM); against Pyricularia oryzae [3] it was 1.56 mg/L (≈ 6.33 µM); in the test with Nakataea oryzae, 3.12 mg/L (≈ 12.7 µM).

Regarding `Cc1oc2ccccc2c(=O)c1C(N)=O`, in the test with Rhizoctonia solani [1], the Activity is recorded as 0%. In addition, the MIC against Bipolaris oryzae, in the test with Rhizoctonia solani [2], with Pyricularia oryzae [3] and in the test on Nakataea oryzae was > 100 mg/L in each case.

On to `NC(=O)c1c(N)oc2ccc(I)cc2c1=O`, for which, in the test with Rhizoctonia solani [1], the Activity is 100%. For the same compound, the MIC in the test on Bipolaris oryzae came out at 12.5 mg/L (≈ 37.9 µM); in the test on Rhizoctonia solani [2], 12.5 mg/L (≈ 37.9 µM); in the test with Pyricularia oryzae [3], 3.12 mg/L (≈ 9.45 µM); with Nakataea oryzae, 3.12 mg/L (≈ 9.45 µM).
